Source: patent publication US8816085B2 (Takeda GmbH, priority 2009, dated 2014)

Key:
[1] = target: T1, PDE5A1 (human PDE5 from platelets) (Homo sapiens, UniProt O76074); assay: Inhibition of type 5 phosphodiesterase (PDE5) activity, modified SPA test; type: biochemical; conditions: PDE5-containing human platelet lysate, 0.5 μM cGMP, value classes, read-out: PDE5A1 inhibitory values [measured as −logIC50 (mol/l)] (converted)
T1 construct: from tissue; host or cells: platelets from fresh blood of human donors (10,000 g supernatant of sonified platelets)
Method in brief: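 Enzyme source: human platelet lysate (10,000 g supernatant), with 1 μM motapizone and 10 nM PDE2 inhibitor present. SPA format in 20 mM Tris pH 7.4, 5 mM Mg2+, 0.5 μM cGMP with [3H]cGMP tracer; 5 min preincubation at 37 °C, 15 min reaction, stopped with IBMX-containing beads. IC50 by non-linear regression.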

[2] = system: anaesthetised male Sprague Dawley rats; assay: Phenylephrine-induced acute arterial hypertension and SNP-induced blood pressure response (MAP); type: in vivo; conditions: 3 mg/kg orally 90 min prior to SNP (30 μg/kg i.v.); continuous i.v. PE-infusion; vs. placebo
Description: Nitric oxide regulates smooth muscle tone by elevation of cGMP via activation of guanylate cyclase and subsequent activation of cyclic GMP-dependent protein kinase. The amplitude and duration of the cGMP signal in smooth muscle is largely regulated by cGMP-specific cyclic nucleotide phosphodiesterase 5 (PDE5). […] The aim of the study was to evaluate the effects of the selective PDE5 inhibitors described in this present subject matter on phenylephrine-induced acute arterial hypertension and sodium-nitroprusside (SNP) induced blood pressure response in anaesthetised male Sprague Dawley rats.
The test compound (suspended in a 4% w/v aqueous methylcellulose solution 3 mg/kg) or placebo (i.e. 4% aqueous methylcellulose solution) is administered orally to conscious Sprague Dawley rats 90 min prior to SNP administration. 40 min later, rats are anaesthetised by intramuscular administration of 80 mg/kg ketamine-HCl+4 mg/kg xylazin-HCl and ventilated with ˜1.5% isoflurane in a mixture of ambient air and 40% oxygen. Catheters for i.v. PE- and SNP-administration and recording of mean arterial blood pressure (MAP) are inserted. […] To assess the effect of test compounds (PDE5 inhibitory activity) in comparison to placebo, MAP response is analysed. […]

SMILES: Cc1[nH]c2c(-c3c(OCC4CC4)ccc4c3OCO4)ccnc2c1C(=O)NC1CCN(C(=O)[C@H](C)O)CC1 [Example F02, 7-[5-(Cyclopropylmethoxy)-1,3-benzodioxol-4-yl]-N-{1-[(2S)-2-hydroxypropanoyl]piperidin-4-yl}-2-methyl-1H-pyrrolo[3,2-b]pyridine-3-carboxamide]
- IC50 [1]: < 1 nM
- efficacy (% change vs. control), corr. AUCMAP 0-180 s following SNP-administration [2]: ~−27%

SMILES: CC(=O)N1CCC(NC(=O)c2c(C)[nH]c3c(-c4c(OCC5CC5)ccc5c4OCO5)ccnc23)CC1 [Example E01, N-(1-Acetylpiperidin-4-yl)-7-[5-(cyclopropylmethoxy)-1,3-benzodioxol-4-yl]-2-methyl-1H-pyrrolo[3,2-b]pyridine-3-carboxamide]
- IC50 [1]: < 1 nM
- efficacy (% change vs. control), corr. AUCMAP 0-180 s following SNP-administration [2]: ~−27%

SMILES: COc1cc(OCC2CC2)c(-c2ccnc3c(C(=O)N[C@H]4CC[C@@H](NC(=O)CO)CC4)c(C)[nH]c23)cc1F [Example F54, 7-[2-(Cyclopropylmethoxy)-5-fluoro-4-methoxyphenyl]-N-[cis-4-(glycoloylamino)cyclohexyl]-2-methyl-1H-pyrrolo[3,2-b]pyridine-3-carboxamide]
- IC50 [1]: < 1 nM

SMILES: COc1cc(-c2ccnc3c(C(=O)N[C@@H]4CN(C(=O)CO)C[C@H]4O)c(C)[nH]c23)c(OCC2CC2)cc1F (relative stereo) [Example F46, 7-[2-(Cyclopropylmethoxy)-4-fluoro-5-methoxyphenyl]-N-[(3R*,4R*)-4-hydroxy-1-(hydroxyacetyl)pyrrolidin-3-yl]-2-methyl-1H-pyrrolo[3,2-b]pyridine-3-carboxamide]
- IC50 [1]: < 1 nM

SMILES: COCC(=O)N[C@H]1CC[C@@H](NC(=O)c2c(C)[nH]c3c(-c4ccc(OC)cc4OCC4CC4)ccnc23)CC1 [Example E39, 7-[2-(Cyclopropylmethoxy)-4-methoxyphenyl]-N-{cis-4-[(methoxyacetyl)amino]cyclohexyl}-2-methyl-1H-pyrrolo[3,2-b]pyridine-3-carboxamide]
- IC50 [1]: 1 to 10 nM

SMILES: CC(=O)N1CCC(NC(=O)c2c(C)[nH]c3c(-c4ccc(F)cc4OCC4CC4)ccnc23)CC1 [Example E10, N-(1-Acetylpiperidin-4-yl)-7-[2-(cyclopropylmethoxy)-4-fluorophenyl]-2-methyl-1H-pyrrolo[3,2-b]pyridine-3-carboxamide]
- IC50 [1]: < 1 nM

SMILES: CCC(=O)N[C@H]1CC[C@@H](NC(=O)c2c(C)[nH]c3c(-c4cc(C)ccc4OCC4CC4)ccnc23)CC1 [Example E59, 7-[2-(Cyclopropylmethoxy)-5-methylphenyl]-2-methyl-N-[cis-4-(propanoylamino)cyclohexyl]-1H-pyrrolo[3,2-b]pyridine-3-carboxamide]
- IC50 [1]: 1 to 10 nM

SMILES: CCC(=O)N[C@H]1CC[C@@H](NC(=O)c2c(C)[nH]c3c(-c4ccc(F)cc4OCC4CC4)ccnc23)CC1 [Example E17]
- IC50 [1]: 1 to 10 nM

SMILES: COc1ccc(OCC2CC2)c(-c2ccnc3c(C(=O)NC4CCN(C(C)=O)CC4)c(C)[nH]c23)c1 [Example E40, N-(1-Acetylpiperidin-4-yl)-7-[2-(cyclopropylmethoxy)-5-methoxyphenyl]-2-methyl-1H-pyrrolo[3,2-b]pyridine-3-carboxamide]
- IC50 [1]: < 1 nM

SMILES: COc1ccc(-c2ccnc3c(C(=O)NC4CCN(C(=O)CO)CC4)c(C)[nH]c23)c(OCC2CC2)c1 [Example F20, 7-[2-(Cyclopropylmethoxy)-4-methoxyphenyl]-N-[1-(hydroxyacetyl)piperidin-4-yl]-2-methyl-1H-pyrrolo[3,2-b]pyridine-3-carboxamide]
- IC50 [1]: < 1 nM

SMILES: COCC(=O)N1CCC(NC(=O)c2c(C)[nH]c3c(-c4cc(F)c(OC)cc4OCC4CC4)ccnc23)CC1 [Example E78, 7-[2-(Cyclopropylmethoxy)-5-fluoro-4-methoxyphenyl]-N-[1-(methoxyacetyl)piperidin-4-yl]-2-methyl-1H-pyrrolo[3,2-b]pyridine-3-carboxamide]
- IC50 [1]: < 1 nM

SMILES: COCC(=O)N[C@H]1CC[C@H](NC(=O)c2c(C)[nH]c3c(-c4cc(OC)c(F)cc4OCC4CC4)ccnc23)CC1 [Example E66, 7-[2-(Cyclopropylmethoxy)-4-fluoro-5-methoxyphenyl]-N-{trans-4-[(methoxyacetyl)amino]cyclohexyl}-2-methyl-1H-pyrrolo[3,2-b]pyridine-3-carboxamide]
- IC50 [1]: < 1 nM

SMILES: COCC(=O)N[C@H]1CC[C@@H](NC(=O)c2c(C)[nH]c3c(-c4cc(C)ccc4OCC4CC4)ccnc23)CC1 [Example E60, 7-[2-(Cyclopropylmethoxy)-5-methylphenyl]-N-{cis-4-[(methoxyacetyl)amino]cyclohexyl}-2-methyl-1H-pyrrolo[3,2-b]pyridine-3-carboxamide]
- IC50 [1]: 1 to 10 nM
